From US11040954B1, “CXCR3 receptor agonists” (RECEPTOS LLC, priority 2016, dated 2021) come the findings set out here.

Each structure is given as a SMILES string.

The nature of data set [1]: Mouse pharmacokinetics after oral gavage, plasma drug concentration by LC-MS/MS (C57BL/6). In kind it is in vivo, C57bl/6 mice. As to conditions: male mice; for Cmax / AUC(0-t): mouse, plasma; for AUC(0-t): read-out: AUC0-24. Here is the method: (§1) Compounds were formulated in 5% DMSO/5% Tween20 in H2O, sonicated, vortexed, and put on stir plate overnight at a dose volume of 10 mL/kg. Balb/C (Jackson laboratories) or C57bl/6 (Taconic Biosciences) mice (8-9 weeks old) were acclimated to the colony for 3 days prior to dosing. Water and food were provided ab libitum. Compounds were administered by oral gavage. Groups of six animals received 3 to 4 bleeds per day with one terminal bleed. The time points were 30 min, 1 h, 2 h, 4 h, 6 h, 8 h, 24 h. Plasma was collected via centrifugation and analyzed for drug concentrations.
(§2) Preparation of Study Samples and Standards for Analysis by LC-MS/MS
(§3) 50 μl of plasma was aliquoted into a 96 well deep-well polypropylene plate (2 mL) to which 5 μL of DMSO was added. For standards, 5 μl of test compound in DMSO at […] the standard concentration was added to 50 μl of blank matrix in a 96 well deep-well polypropylene plate. For example, for a 300 nM standard, the 10× DMSO concentration was 3 μM. Study samples that require dilution are diluted with the appropriate blank matrix. For example, for a 10× dilution, 5 μL of study sample is added to 45 μl of blank matrix. Protein was precipitated from study samples and standards with the addition of 150 μl of acetonitrile. After a clean plate map was placed firmly over the top of the 96-well plate, a bench top shaker was used for 1 min to ensure complete precipitation of protein. The precipitated protein was pelleted by centrifuging for 3,000 rpm for 10 min at 20° C. and then the clear supernatant was transferred to a clean 96-well plate and spun again under the same conditions in order to pellet any solid material that may have been transferred.
(§4) Analysis of Study Samples and Standards with LCMS with MRM Detection
(§5) An Agilent 1200 HPLC with binary pump and a Leap CTC with fast wash autosampler were used to introduce samples to the mass spectrometer.
(§6) The column used was a Phenomenex Luna C8 30×2 mm 5 μm with a security guard. Mass detection was performed by an Applied Biosystems 4000 Qtrap in MRM mode and ionization was achieved by positive electrospray with a source temperature of 500° C. The ion transitions, […] potential and collision energies were dependent on the specific analyte.
(§7) Prepared samples were usually analyzed in reverse chronological order with bracketing standard curves. Typically at least 6 standards were used for quantification with a percent accuracy of +/−15% for all standards except at the LLOQ where a percent accuracy of +/−20% was allowed. The concentration time profile was fit using a one compartment model for the applicable mode of dosing using Phoenix WinNonLin 6.4.

The next data set addresses T1, CXCR3 (Homo sapiens, UniProt P49682).
T1 construct: host or cells: CHO-K1 (cAMP Hunter CHOK1 CXCR3 Gi cell line)
T1 sequence (P49682 1-368): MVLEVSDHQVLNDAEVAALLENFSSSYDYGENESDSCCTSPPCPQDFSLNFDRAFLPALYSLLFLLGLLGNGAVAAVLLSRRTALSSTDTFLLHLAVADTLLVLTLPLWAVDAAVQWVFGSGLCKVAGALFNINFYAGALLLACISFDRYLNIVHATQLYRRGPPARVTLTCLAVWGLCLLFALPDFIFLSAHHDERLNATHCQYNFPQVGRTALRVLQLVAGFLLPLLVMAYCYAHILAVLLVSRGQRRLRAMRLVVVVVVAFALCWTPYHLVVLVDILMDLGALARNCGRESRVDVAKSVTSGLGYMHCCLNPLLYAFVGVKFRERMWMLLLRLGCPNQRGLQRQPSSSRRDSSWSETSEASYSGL
Description: CXCR3 cAMP agonist assay (cAMP Hunter CHOK1 CXCR3 Gi cell line, forskolin-stimulated, HitHunter cAMP detection). The format is cell-based. As to conditions: cAMP Hunter CHOK1 CXCR3 Gi cells, 20 μM forskolin, 30 minutes; read-out: Activity (CXCR3 cAMP agonist assay compound EC50). Put shortly:
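Agonist activity was measured as suppression of forskolin (20 μM)-induced cAMP, read by luminescent enzyme-fragment complementation with a cAMP standard curve and CXCL11 defining full efficacy. Assay used 50,000 CXCR3 Gi CHOK1 cells/well in pH 7.4 HEPES-buffered HBSS with 0.1% BSA, compound 0-10 μM over 12 points, 30 min incubation.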

The nature of data set [2]: Mouse pharmacokinetics after oral gavage, plasma drug concentration by LC-MS/MS (BALB/c). As to conditions: 10 mg/kg, male mice; for Cmax / AUC(0-t): mouse, plasma; for AUC(0-t): read-out: AUC0-24. In kind it is in vivo. Here is the method:
as §1, §2, §3, §4, §5, §6, §7

The Cmax is the peak of the concentration-time curve. As usually defined, the EC50 is the concentration needed to bring the measured effect to its halfway point. With `Cc1cc(NC(=O)[C@H](CCNC(C)C)NC(=O)[C@@H]2Cc3ccccc3CN2C(=O)CCC(=O)c2ccccc2)ccc1Cl` [Compound 8-3], in data set [1] (C57BL/6, 10 mg/kg), the “apparent oral clearance (CL/F)” value was 246 mL/min/kg, the Cmax is 330 nM and the AUC(0-t) was 1.2 µM·h. Also, the concentration giving a half-maximal response (EC50) on CXCR3 was less than 50 nM. Moreover, in data set [2], the “apparent oral clearance (CL/F)” value was determined as 56 mL/min/kg, the Cmax was determined as 800 nM and the AUC(0-t) came out at 4.9 µM·h.
With `NCC[C@H](NC(=O)[C@@H]1Cc2ccccc2CN1C(=O)CCC(=O)c1ccccc1)C(=O)Nc1ccc(Cl)c(Cl)c1F` [Compound 2-24], in data set [1] (C57BL/6, 10 mg/kg), the “apparent oral clearance (CL/F)” value worked out at 38 mL/min/kg, the Cmax worked out at 1000 nM and the AUC(0-t) stood at 7 µM·h. Moreover, in data set [1] (C57BL/6, 60 mg/kg), the “apparent oral clearance (CL/F)” value is 58 mL/min/kg, the Cmax was 3000 nM and the AUC(0-t) came to 29 µM·h. Besides, the EC50 at CXCR3 is less than 50 nM. Further, in data set [2], the “apparent oral clearance (CL/F)” value was 23 mL/min/kg, the Cmax was 3300 nM and the AUC(0-t) worked out at 12.3 µM·h.
`Cc1cc(NC(=O)[C@H](CCCCNC(C)C)NC(=O)[C@@H]2Cc3ccccc3CN2C(=O)CCC(=O)c2ccccc2)ccc1Cl` [Compound 4-6]: in data set [1] (C57BL/6, 10 mg/kg), the “apparent oral clearance (CL/F)” value worked out at 2346 mL/min/kg, the peak concentration (Cmax) was 70 nM and the AUC(0-t) was found to be 0.11 µM·h. The concentration giving a half-maximal response (EC50) on CXCR3 is less than 50 nM. Moreover, in data set [2], the “apparent oral clearance (CL/F)” value is on record as 158 mL/min/kg, the Cmax turned out to be 1200 nM and the AUC(0-t) came out at 1.7 µM·h.
With `NCCCC[C@H](NC(=O)[C@@H]1Cc2ccccc2CN1C(=O)CCC(=O)c1ccccc1)C(=O)Nc1ccc(F)c(C(F)(F)F)c1` [Compound 1-26], on CXCR3, the EC50 is less than 50 nM. For the same compound, in data set [2], the highest level (Cmax) was 3 nM and the AUC(0-t) was determined as 0.006 µM·h.
In the case of `NCCCC[C@H](NC(=O)[C@@H]1Cc2ccccc2CN1C(=O)CCC(=O)c1ccccc1)C(=O)Nc1ccc(Cl)c(F)c1` [Compound 1-20], the EC50 on CXCR3 fell in the range of 50 to 250 nM. For the same compound, in data set [2], the “apparent oral clearance (CL/F)” value is recorded as 527 mL/min/kg, the concentration peaked (Cmax) at 230 nM and the AUC(0-t) stood at 0.53 µM·h.
Regarding `Cc1cccc(NC(=O)[C@H](CCN)NC(=O)[C@@H]2Cc3ccccc3CN2C(=O)CCC(=O)c2ccccc2)c1` [Compound 2-5], the concentration giving a half-maximal response (EC50) on CXCR3 is less than 50 nM. Moreover, in data set [2], the “apparent oral clearance (CL/F)” value was found to be 389 mL/min/kg, the maximum concentration (Cmax) is 500 nM and the AUC(0-t) came out at 0.8 µM·h.
Take `Cc1cc(NC(=O)[C@H](CCN)NC(=O)[C@@H]2Cc3ccccc3CN2C(=O)CCC(=O)c2ccccc2)ccc1Cl` [Compound 2-2]: the “apparent oral clearance (CL/F)” value in data set [1] (C57BL/6, 10 mg/kg) was 176 mL/min/kg; in data set [1] (C57BL/6, 60 mg/kg), 266 mL/min/kg. In addition, the Cmax was 900 nM in data set [1] (C57BL/6, 10 mg/kg); 2700 nM in data set [1] (C57BL/6, 60 mg/kg); 3500 nM in data set [2]. Besides, the AUC(0-t) in data set [1] (C57BL/6, 10 mg/kg) was determined as 1.7 µM·h; in data set [1] (C57BL/6, 60 mg/kg) it was 6.7 µM·h. In addition, on CXCR3, the EC50 is less than 50 nM.
On to `Cc1ccc(NC(=O)[C@H](CCN)NC(=O)[C@@H]2Cc3ccccc3CN2C(=O)CCC(=O)c2ccccc2)cc1C(F)(F)F` [Compound 2-7], for which the EC50 at CXCR3 was less than 50 nM. For the same compound, in data set [2], the “apparent oral clearance (CL/F)” value was determined as 86 mL/min/kg, the peak level (Cmax) was 1900 nM and the AUC(0-t) is 3.3 µM·h.
For `Cc1c(NC(=O)[C@H](CCCCN)NC(=O)[C@@H]2Cc3ccccc3CN2C(=O)CCC(=O)c2ccccc2)ccc(Cl)c1Cl` [Compound 1-25] the same measures were less than 50 nM, 782 mL/min/kg, 70 nM and 0.34 µM·h.
Taken in the same sequence, the figures for `Cc1cc(NC(=O)[C@H](CCN)NC(=O)[C@@H]2Cc3ccccc3CN2C(=O)CCC(=O)c2ccccc2)c(C)cc1Cl` [Compound 2-19] were less than 50 nM, 59 mL/min/kg, 1300 nM and 4.9 µM·h.
`Cc1cc(Cl)c(Cl)cc1NC(=O)[C@H](CCN)NC(=O)[C@@H]1Cc2ccccc2CN1C(=O)CCC(=O)c1ccccc1` [Compound 2-21]: at CXCR3, the half-maximal effective concentration (EC50) is less than 50 nM. Moreover, in data set [2], the “apparent oral clearance (CL/F)” value is 65 mL/min/kg, the highest level (Cmax) was 900 nM and the AUC(0-t) worked out at 4.3 µM·h.
For `Cc1cc(NC(=O)[C@H](CCCN)NC(=O)[C@@H]2Cc3ccccc3CN2C(=O)CCC(=O)c2ccccc2)ccc1Cl` [Compound 4-3] the same measures were less than 50 nM, 4627 mL/min/kg, 30 nM and 0.06 µM·h.
For the compound `N=C(N)NCCC[C@H](NC(=O)[C@@H]1Cc2ccccc2CN1C(=O)CCC(=O)c1ccccc1)C(=O)NCC1CCCCC1` [A], in data set [1] (C57BL/6, 10 mg/kg), the AUC0-24 result is listed as “BQL”, the “apparent oral clearance (CL/F)” value is recorded as “BQL” and the maximum concentration (Cmax) worked out at 2 nM. In addition, in data set [2], the AUC0-24 result is on record as “BLQ”, the “apparent oral clearance (CL/F)” value is on record as “BQL” and the concentration peaked (Cmax) at 4 nM.
Take `Cc1cc(NC(=O)[C@H](CCN)NC(=O)[C@@H]2Cc3ccccc3CN2C(=O)CCC(=O)c2ccccc2)c(Cl)cc1Cl` [Compound 2-22]: in data set [1] (C57BL/6, 10 mg/kg), the “apparent oral clearance (CL/F)” value is 19 mL/min/kg, the peak level (Cmax) was 2900 nM and the AUC(0-t) was found to be 15.1 µM·h. Moreover, at CXCR3, the EC50 is less than 50 nM. For the same compound, in data set [2], the “apparent oral clearance (CL/F)” value came out at 10 mL/min/kg, the highest concentration (Cmax) was determined as 4200 nM and the AUC(0-t) is 27 µM·h.
In the case of `Cc1ccc(NC(=O)[C@H](CCN)NC(=O)[C@@H]2Cc3ccccc3CN2C(=O)CCC(=O)c2ccccc2)cc1C` [Compound 2-3], at CXCR3, the 50% effective concentration (EC50) is less than 50 nM. Moreover, in data set [2], the “apparent oral clearance (CL/F)” value worked out at 403 mL/min/kg, the Cmax worked out at 400 nM and the AUC(0-t) turned out to be 0.8 µM·h.
For the compound `CNCCCC[C@H](NC(=O)[C@@H]1Cc2ccccc2CN1C(=O)CCC(=O)c1ccccc1)C(=O)Nc1ccc(Cl)c(C)c1` [Compound 4-4], the EC50 at CXCR3 is less than 50 nM. Also, in data set [2], the peak level (Cmax) was 20 nM and the AUC(0-t) was 0.03 µM·h.
Take `Cc1c(Cl)ccc(NC(=O)[C@H](CCN)NC(=O)[C@@H]2Cc3ccccc3CN2C(=O)CCC(=O)c2ccccc2)c1C` [Compound 2-26]: the half-maximal effective concentration (EC50) on CXCR3 was less than 50 nM. In addition, in data set [2], the “apparent oral clearance (CL/F)” value was 76 mL/min/kg, the Cmax came out at 900 nM and the AUC(0-t) came to 3.8 µM·h.
For the compound `NCCCC[C@H](NC(=O)[C@@H]1Cc2ccccc2CN1C(=O)CCC(=O)c1ccccc1)C(=O)NCC(c1ccccc1)c1ccccc1` [B], in data set [1] (C57BL/6, 10 mg/kg), the “apparent oral clearance (CL/F)” value stood at 9000 mL/min/kg, the concentration peaked (Cmax) at 30 nM and the AUC(0-t) came out at 0.029 µM·h. Further, in data set [2], the AUC0-24 entry was “BLQ”, the “apparent oral clearance (CL/F)” value is recorded as “BQL” and the Cmax turned out to be 7 nM.
